Results: patent US20260365670A1, “EGFR INHIBITORS AND USES THEREOF” (DIZAL (JIANGSU) PHARMACEUTICAL CO., LTD., priority 2022, published 2026)
Where two headings read alike, the source gives them in different places.

Assays:
[1] = tested on: A-431; experiment: Cell proliferation assay, A-431 cells (GI50, Table 6); format: cell-based; settings: Homo sapiens, A-431, A-431 cells
[2] = molecular target: T1, EGFR[T790M/C797S/d746-750] (Homo sapiens, UniProt P00533, C797S/DEL746-750/T790M); experiment: Inhibition of EGFR[T790M/C797S/d746-750] biochemical enzymatic activity (HTRF)
T1 construct: purchased Carna Bio
Method in brief: (§1)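 Kinase activity is measured by HTRF detection of biotinylated TK substrate (1 μM) phosphorylation at 1 mM ATP. Incubation lasts 1 h at room temperature before an EDTA stop, and IC50 is fitted with a four-parameter logistic model.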

[3] = tested on: PC-9; experiment: Cell proliferation assay, PC-9 cells (CellTiter-Glo, 72 hours); format: cell-based; settings: PC9 cells, read-out: GI50 PC9
Method in brief: (§2)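 GI50 is the concentration giving 50% proliferation inhibition. Growth for this was normalised to a baseline viability reading taken when compound was added, and to DMSO wells. PC-9 (500 cells/well) and mutant-EGFR Ba/F3 (5000 cells/well) are treated after overnight seeding in RPMI1640-based medium.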

[4] = molecular target: T2, EGFR L858R (Homo sapiens, UniProt P00533, L858R); experiment: Inhibition of EGFR L858R biochemical enzymatic activity (HTRF); settings: 1 mM ATP
T2 construct: purchased Carna Bio
Method in brief: as §1

[5] = molecular target: T3, EGFR wild type (Homo sapiens, UniProt P00533); experiment: Inhibition of EGFR wild type biochemical enzymatic activity (HTRF); settings: 1 mM ATP
T3 construct: purchased Carna Bio
Method in brief: as §1

[6] = molecular target: T4, EGFR Exon19Del/T790M (Homo sapiens, UniProt P00533, DEL746-750/T790M); experiment: Inhibition of EGFR Exon19Del/T790M biochemical enzymatic activity (HTRF); settings: 1 mM ATP
T4 construct: purchased Carna Bio
Method in brief: as §1

[7] = molecular target: T5, EGFR[T790M/C797S/L858R] (Homo sapiens, UniProt P00533, C797S/L858R/T790M); experiment: Inhibition of EGFR[T790M/C797S/L858R] biochemical enzymatic activity (HTRF); settings: 1 mM ATP
T5 construct: purchased Carna Bio
Method in brief: as §1

[8] = molecular target: T6, EGFR L858R/T790M (Homo sapiens, UniProt P00533, L858R/T790M); experiment: Inhibition of EGFR L858R/T790M biochemical enzymatic activity (HTRF); settings: 1 mM ATP
T6 construct: purchased Carna Bio
Method in brief: as §1

[9] = molecular target: T7, EGFR (C797S L858R) (Homo sapiens, UniProt P00533, C797S/L858R); experiment: Inhibition of EGFR (C797S L858R) biochemical enzymatic activity (HTRF); settings: 1 mM ATP
T7 construct: purchased signalchem
Method in brief: as §1

[10] = molecular target: T8, EGFR (d746-750 C797S) (Homo sapiens, UniProt P00533, C797S/DEL746-750); experiment: Inhibition of EGFR (d746-750 C797S) biochemical enzymatic activity (HTRF); settings: 1 mM ATP
T8 construct: purchased signalchem
Method in brief: as §1

[11] = tested on: Ba/F3 cells expressing EGFR mutations; experiment: Cell proliferation assay, Ba/F3 cells expressing EGFR mutations (CellTiter-Glo, 72 hours); format: cell-based
Method in brief: as §2

[12] = molecular target: T9, EGFR Exon19Del (Homo sapiens, UniProt P00533, DEL746-750); experiment: Inhibition of EGFR Exon19Del biochemical enzymatic activity (HTRF); settings: read-out: IC50 @Del19
T9 construct: purchased Carna Bio
Method in brief: as §1

[13] = EGFR T790M-C797S-Del19, 1 mM ATP, 1 h, room temperature, read-out: IC50 (nM) @T790M - C797S - Del19
[14] = 1 h, room temperature, read-out: IC50 (nM) @L858R
[15] = EGFR WT, 1 h, room temperature, read-out: IC50 (nM) @WT
[16] = EGFR Del19-T790M, 1 h, room temperature, read-out: IC50 (nM) @Del19-T790M
[17] = EGFR T790M-C797S-L858R, 1 h, room temperature, read-out: IC50 (nM) @T790M- C797S - L858R
[18] = EGFR L858R-T790M, 1 h, room temperature, read-out: IC50 (nM) @L858R-T790M
[19] = EGFR L858-C797S, 1 h, room temperature, read-out: IC50 (nM) @L858-C797S
[20] = EGFR Del19-C797S, 1 h, room temperature, read-out: IC50 (nM) @Del19-C797S
[21] = Mus musculus, BaF3, 72 h, BaF3 cells, EGFR DEL19 - C797S, read-out: GI50 DEL19 - C797S/BaF3
[22] = Mus musculus, BaF3, 72 h, BaF3 cells, EGFR DEL19 - T790-C797S, read-out: GI50 DEL19 - T790-C797S/BaF3
[23] = Mus musculus, BaF3, 72 h, BaF3 cells, EGFR L858R - C797S, read-out: GI50 L858R - C797S/BaF3
[24] = Mus musculus, BaF3, 72 h, BaF3 cells, EGFR L858R - T790-C797S, read-out: GI50 L858R - T790-C797S/BaF3
[25] = Mus musculus, BaF3, 72 h, BaF3 cells, EGFR L858R - T790M, read-out: GI50 L858R - T790M/BaF3
[26] = Mus musculus, BaF3, 72 h, BaF3 cells, EGFR L858R, read-out: GI50 L858R/BaF3
[27] = Mus musculus, BaF3, 72 h, EGFR DEL19 - T790M, read-out: GI50 DEL19 - T790M
[28] = EGFR Del19, 1 mM ATP, 1 h, room temperature
[29] = EGFR[T790M/C797S/d746-750], 1 mM ATP, 1 h at room temperature, read-out: IC50 @T790M - C797S - Del19
[30] = 1 h at room temperature, read-out: IC50 @L858R
[31] = EGFR wild type, 1 h at room temperature, read-out: IC50 @WT
[32] = EGFR Exon19Del/T790M, 1 h at room temperature, read-out: IC50 @Del19-T790M
[33] = EGFR[T790M/C797S/L858R], 1 h at room temperature, read-out: IC50 @T790M- C797S - L858R
[34] = EGFR L858R/T790M, 1 h at room temperature, read-out: IC50 @L858R-T790M
[35] = EGFR (C797S L858R), 1 h at room temperature, read-out: IC50 @L858-C797S
[36] = EGFR (d746-750 C797S), 1 h at room temperature, read-out: IC50 @Del19-C797S
[37] = EGFR Exon19Del, 1 mM ATP, 1 h at room temperature

T7 sequence (P00533 25-1210 C797S/L858R): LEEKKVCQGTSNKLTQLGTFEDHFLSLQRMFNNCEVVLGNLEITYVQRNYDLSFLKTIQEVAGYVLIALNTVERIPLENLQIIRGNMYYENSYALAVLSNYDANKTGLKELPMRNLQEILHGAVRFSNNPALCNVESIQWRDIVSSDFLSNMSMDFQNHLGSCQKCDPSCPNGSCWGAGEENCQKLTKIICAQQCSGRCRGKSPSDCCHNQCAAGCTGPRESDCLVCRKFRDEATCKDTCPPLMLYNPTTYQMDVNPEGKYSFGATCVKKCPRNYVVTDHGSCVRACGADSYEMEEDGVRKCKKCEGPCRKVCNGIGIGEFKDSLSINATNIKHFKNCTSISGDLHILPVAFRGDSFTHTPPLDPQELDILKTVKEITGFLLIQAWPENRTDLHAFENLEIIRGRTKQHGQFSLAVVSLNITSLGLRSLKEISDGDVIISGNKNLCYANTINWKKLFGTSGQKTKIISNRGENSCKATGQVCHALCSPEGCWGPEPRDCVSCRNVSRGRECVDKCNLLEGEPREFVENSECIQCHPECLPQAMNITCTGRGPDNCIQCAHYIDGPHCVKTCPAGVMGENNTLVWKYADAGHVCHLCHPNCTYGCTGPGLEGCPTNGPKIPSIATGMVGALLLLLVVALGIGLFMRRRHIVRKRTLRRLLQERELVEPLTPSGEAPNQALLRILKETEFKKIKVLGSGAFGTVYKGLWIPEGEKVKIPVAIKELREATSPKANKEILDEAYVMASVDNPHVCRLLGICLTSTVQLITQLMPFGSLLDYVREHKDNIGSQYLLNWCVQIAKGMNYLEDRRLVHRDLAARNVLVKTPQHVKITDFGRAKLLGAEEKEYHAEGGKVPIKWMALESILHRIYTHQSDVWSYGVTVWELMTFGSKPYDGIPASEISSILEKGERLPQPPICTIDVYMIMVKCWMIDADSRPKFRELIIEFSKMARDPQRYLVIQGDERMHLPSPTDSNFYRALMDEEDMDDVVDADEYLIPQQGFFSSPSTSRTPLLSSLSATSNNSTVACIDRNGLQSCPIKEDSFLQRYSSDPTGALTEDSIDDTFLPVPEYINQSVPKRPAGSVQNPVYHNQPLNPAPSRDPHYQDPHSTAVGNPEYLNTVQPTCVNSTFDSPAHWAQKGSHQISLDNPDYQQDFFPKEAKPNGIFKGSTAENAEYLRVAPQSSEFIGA
T9 sequence (P00533 with tags, fused parts or gaps DEL746-750 limits assumed): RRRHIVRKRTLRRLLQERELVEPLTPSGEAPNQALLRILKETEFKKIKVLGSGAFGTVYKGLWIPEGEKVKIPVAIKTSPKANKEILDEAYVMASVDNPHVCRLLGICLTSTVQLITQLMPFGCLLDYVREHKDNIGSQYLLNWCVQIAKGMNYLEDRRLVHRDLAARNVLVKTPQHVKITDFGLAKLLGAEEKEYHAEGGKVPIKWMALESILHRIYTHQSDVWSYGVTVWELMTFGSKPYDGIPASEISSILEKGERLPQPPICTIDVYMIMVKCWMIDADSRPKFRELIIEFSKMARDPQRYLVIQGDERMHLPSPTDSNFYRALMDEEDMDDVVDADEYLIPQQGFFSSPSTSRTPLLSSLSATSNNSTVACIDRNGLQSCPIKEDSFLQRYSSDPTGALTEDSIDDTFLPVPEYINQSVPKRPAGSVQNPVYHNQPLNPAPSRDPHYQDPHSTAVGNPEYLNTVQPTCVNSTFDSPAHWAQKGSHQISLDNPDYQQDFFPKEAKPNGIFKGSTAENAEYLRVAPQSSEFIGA
T2 sequence (P00533 25-1210 L858R): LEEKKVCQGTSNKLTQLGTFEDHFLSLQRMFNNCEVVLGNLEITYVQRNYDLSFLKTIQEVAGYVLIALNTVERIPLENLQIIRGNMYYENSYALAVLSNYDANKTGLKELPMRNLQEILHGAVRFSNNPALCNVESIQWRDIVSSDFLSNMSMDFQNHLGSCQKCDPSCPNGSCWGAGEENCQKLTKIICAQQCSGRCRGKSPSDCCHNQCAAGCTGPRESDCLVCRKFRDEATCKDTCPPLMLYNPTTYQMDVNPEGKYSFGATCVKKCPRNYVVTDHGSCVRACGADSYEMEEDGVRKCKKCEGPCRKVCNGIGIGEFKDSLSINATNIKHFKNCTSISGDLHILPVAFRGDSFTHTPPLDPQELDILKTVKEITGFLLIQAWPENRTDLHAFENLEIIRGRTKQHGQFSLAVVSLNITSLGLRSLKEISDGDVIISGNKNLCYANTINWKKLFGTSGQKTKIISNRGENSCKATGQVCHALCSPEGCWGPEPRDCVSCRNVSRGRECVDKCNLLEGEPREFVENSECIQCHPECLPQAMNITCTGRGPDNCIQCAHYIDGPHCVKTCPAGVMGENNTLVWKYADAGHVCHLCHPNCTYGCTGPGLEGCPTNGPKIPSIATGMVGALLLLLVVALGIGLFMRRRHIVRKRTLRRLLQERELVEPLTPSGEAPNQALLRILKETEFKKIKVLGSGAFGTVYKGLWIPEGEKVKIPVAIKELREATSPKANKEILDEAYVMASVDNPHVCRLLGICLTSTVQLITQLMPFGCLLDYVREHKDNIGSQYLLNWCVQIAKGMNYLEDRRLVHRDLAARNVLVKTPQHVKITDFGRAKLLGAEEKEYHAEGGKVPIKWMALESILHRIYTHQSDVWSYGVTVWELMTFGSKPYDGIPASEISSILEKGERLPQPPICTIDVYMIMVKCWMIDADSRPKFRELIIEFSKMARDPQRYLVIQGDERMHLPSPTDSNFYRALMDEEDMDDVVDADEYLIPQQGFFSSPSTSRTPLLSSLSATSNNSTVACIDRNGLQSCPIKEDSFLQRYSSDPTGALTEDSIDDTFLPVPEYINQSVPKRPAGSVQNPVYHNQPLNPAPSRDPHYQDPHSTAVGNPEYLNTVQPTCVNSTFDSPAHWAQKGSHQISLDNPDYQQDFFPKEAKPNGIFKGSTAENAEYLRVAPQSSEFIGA
T1 sequence (P00533 with tags, fused parts or gaps DEL746-750/T790M/C797S limits assumed): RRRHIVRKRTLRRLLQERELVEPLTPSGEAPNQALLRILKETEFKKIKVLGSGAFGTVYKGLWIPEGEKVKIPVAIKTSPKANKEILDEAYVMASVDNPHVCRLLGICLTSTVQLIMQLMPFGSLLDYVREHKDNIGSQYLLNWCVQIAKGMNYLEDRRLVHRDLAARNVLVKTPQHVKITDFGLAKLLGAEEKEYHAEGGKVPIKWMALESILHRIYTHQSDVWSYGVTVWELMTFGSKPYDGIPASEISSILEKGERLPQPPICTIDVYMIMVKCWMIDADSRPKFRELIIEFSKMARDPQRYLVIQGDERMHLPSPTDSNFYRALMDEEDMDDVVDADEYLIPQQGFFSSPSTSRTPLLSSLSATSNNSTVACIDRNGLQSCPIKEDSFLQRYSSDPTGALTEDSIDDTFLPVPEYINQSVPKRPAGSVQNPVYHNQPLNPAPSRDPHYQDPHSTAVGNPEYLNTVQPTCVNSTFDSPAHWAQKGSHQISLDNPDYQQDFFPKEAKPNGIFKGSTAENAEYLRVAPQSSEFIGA
T6 sequence (P00533 25-1210 T790M/L858R): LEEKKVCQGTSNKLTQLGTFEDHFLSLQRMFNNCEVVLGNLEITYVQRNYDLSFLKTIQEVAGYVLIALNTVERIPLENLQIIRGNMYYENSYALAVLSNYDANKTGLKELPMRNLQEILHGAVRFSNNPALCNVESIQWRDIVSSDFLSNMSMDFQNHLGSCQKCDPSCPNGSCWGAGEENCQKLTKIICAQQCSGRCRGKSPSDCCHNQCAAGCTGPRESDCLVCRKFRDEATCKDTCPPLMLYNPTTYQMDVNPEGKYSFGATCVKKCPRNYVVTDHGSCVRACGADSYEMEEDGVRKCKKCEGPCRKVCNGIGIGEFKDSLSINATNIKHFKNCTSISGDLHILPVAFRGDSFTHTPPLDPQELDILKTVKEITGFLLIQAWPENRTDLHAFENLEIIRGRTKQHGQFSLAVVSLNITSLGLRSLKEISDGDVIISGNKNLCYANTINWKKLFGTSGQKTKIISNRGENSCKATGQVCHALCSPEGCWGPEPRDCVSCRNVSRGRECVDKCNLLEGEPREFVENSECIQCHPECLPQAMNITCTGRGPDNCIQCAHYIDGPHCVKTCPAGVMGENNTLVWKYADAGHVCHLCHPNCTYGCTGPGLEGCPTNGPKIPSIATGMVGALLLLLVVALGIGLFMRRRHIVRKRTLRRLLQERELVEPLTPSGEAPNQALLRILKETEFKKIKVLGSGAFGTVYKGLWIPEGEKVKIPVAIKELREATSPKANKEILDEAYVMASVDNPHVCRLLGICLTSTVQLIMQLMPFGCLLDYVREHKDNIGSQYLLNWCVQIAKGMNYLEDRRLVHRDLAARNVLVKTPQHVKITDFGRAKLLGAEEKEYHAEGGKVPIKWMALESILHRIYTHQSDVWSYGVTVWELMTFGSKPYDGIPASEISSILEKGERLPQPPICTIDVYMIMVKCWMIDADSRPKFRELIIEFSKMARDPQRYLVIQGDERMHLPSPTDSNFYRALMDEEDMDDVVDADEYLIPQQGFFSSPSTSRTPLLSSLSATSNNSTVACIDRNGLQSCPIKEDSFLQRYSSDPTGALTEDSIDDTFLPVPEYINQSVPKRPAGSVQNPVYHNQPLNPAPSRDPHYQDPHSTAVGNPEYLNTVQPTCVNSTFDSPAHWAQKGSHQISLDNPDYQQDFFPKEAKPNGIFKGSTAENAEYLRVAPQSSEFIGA

| GI50 [1] [nM] | IC50 [2, 13] [nM] | GI50 ([3]; Homo sapiens, PC-9, 72 h) [nM] | IC50 [4, 14] [nM] | IC50 [5, 15] [nM] | IC50 [6, 16] [nM] | IC50 [7, 17] [nM] | IC50 [8, 18] [nM] | IC50 [9, 19] [nM] | IC50 [10, 20] [nM] | GI50 [11, 21] [nM] | GI50 [11, 22] [nM] | GI50 [11, 23] [nM] | GI50 [11, 24] [nM] | GI50 [11, 25] [nM] | GI50 [11, 26] [nM] | GI50 [11, 27] [nM] | IC50 [12, 28] [nM] | IC50 [2, 29] [nM] | IC50 [4, 30] [nM] | Compound | also measured |
| --- | --- | --- | --- | --- | --- | --- | --- | --- | --- | --- | --- | --- | --- | --- | --- | --- | --- | --- | --- | --- | --- |
| 2020 | 7.3 | 52 | 24 | 954 | 4.3 | 11 | 7.2 | 3.1 | 36 | 7.5 | 1.7 | 58 | 5.2 | 11 | 41 | 2.5 | 7 | – | – | Cc1cc2cc(n1)-c1cnn(C)c1OCCN1CC3CCC(CC3)(C1)n1c(nc3ccc(N4CCN(C)CC4)cc31)NC2=O [Example B3, 15,21-dimethyl-5-(4-methylpiperazin-1-yl)-23-oxa-2,9,11,16,20,21,26-heptaazaheptacyclo[26.2.2.1^{1,26}.1^{13,17}.0^{2,10}.0^{3,8}.0^{18,22}]tetratriaconta-3,5,7,9,13,15,17(34),18(22),19-nonaen-12-one] | – |
| 1120 | 2.9 | 16 | 110 | 3640 | 7.4 | 11 | 61 | 37 | 3.2 | 0.68 | 4.1 | 8.2 | 6.7 | 19 | 3.8 | 1.8 | 8.7 | – | – | Cn1ncc2c1OCCN1CC3CCC(C3)(C1)n1c(nc3cc(F)c(N4CCOCC4)cc31)NC(=O)c1cc-2c(=O)n(C)c1 (single isomer, unassigned) [Example A118B] | – |
| 378 | – | – | – | – | – | – | – | – | – | – | – | – | – | – | – | – | – | 1.9 | 59 | Cc1cc2cc(n1)-c1cnn(C)c1OCCN1CC3CCC(C3)(C1)n1c(nc3ccc(N(C)CCN(C)C)cc31)NC2=O (single isomer, unassigned) [Example B47B] | GI50 [3]: 12 nM; IC50 [5, 31]: 805 nM; IC50 [6, 32]: 2.8 nM; IC50 [7, 33]: 1.5 nM; IC50 [8, 34]: 3.5 nM; IC50 [9, 35]: 14 nM; IC50 [10, 36]: 2.8 nM; GI50 ([11]; BaF3 cells, EGFR DEL19 - C797S, read-out: GI50 DEL19 - C797S/BaF3): 2 nM; GI50 ([11]; BaF3 cells, EGFR DEL19 - T790-C797S, read-out: GI50 DEL19 - T790-C797S/BaF3): 2 nM; GI50 ([11]; BaF3 cells, EGFR L858R - C797S, read-out: GI50 L858R - C797S/BaF3): 9 nM; GI50 ([11]; BaF3 cells, EGFR L858R - T790-C797S, read-out: GI50 L858R - T790-C797S/BaF3): 2 nM; GI50 ([11]; BaF3 cells, EGFR L858R - T790M, read-out: GI50 L858R - T790M/BaF3): 2 nM; GI50 ([11]; BaF3 cells, EGFR L858R, read-out: GI50 L858R/BaF3): 11 nM; GI50 ([11]; EGFR DEL19 - T790M, read-out: GI50 DEL19 - T790M): 2 nM; IC50 [12, 37]: 5.8 nM |
| 5380 | – | 1490 | – | – | – | – | – | – | – | 626 | 269 | 2440 | 764 | 2520 | 3570 | 441 | – | 401 | > 5000 | Cc1cc2cc(n1)-c1cc(=O)n(C)cc1OCCC[C@@H](C)Cn1c(nc3ccccc31)NC2=O [Example B11, (12R)-5,12,27-Trimethyl-8-oxa-5,14,21,23,28-pentaazapentacyclo[23.3.1.0^{2,7}.0^{14,22}.0^{15,20}]nonacosa-1(29),2,6,15,17,19,21,25,27-nonaene-4,24-dione] | IC50 [5, 31]: > 5000 nM; IC50 [6, 32]: 510 nM; IC50 [7, 33]: > 5000 nM; IC50 [8, 34]: > 5000 nM; IC50 [9, 35]: > 5000 nM; IC50 [10, 36]: 4320 nM; IC50 [12, 37]: > 5000 nM |
